Test [1] addresses T1, SUMO-activating enzyme subunit 1 (Homo sapiens) (UniProt Q9UBE0).
T1 sequence (whole entry): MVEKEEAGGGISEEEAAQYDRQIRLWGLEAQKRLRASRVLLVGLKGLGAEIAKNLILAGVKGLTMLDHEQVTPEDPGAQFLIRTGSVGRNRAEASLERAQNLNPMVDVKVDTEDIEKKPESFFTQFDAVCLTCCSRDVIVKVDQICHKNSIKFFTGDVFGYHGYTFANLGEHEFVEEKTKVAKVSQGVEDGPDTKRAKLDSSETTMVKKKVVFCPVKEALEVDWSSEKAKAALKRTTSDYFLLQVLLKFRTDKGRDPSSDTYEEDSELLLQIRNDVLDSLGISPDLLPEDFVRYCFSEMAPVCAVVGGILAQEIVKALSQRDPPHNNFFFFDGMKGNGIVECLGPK
Description: Inhibition of recombinant GST-fused SUMO E1 (unknown origin) using RanGAP1 as substrate at 100 uM after 2 hrs by immunoblot analysis. The settings on record: values are per cent of control. (In general: In western blotting, separated proteins are transferred to a membrane and probed.)

Test [2] addresses T1, SUMO-activating enzyme subunit 1 (Homo sapiens). Briefly: Inhibition of recombinant GST-fused SUMO E1 (unknown origin) using RanGAP1 as substrate at 20 uM after 2 hrs by immunoblot analysis. The settings on record: values are per cent of control.
Test [3] deals with T2, SUMO-activating enzyme subunit 1 (Homo sapiens, UniProt Q9UBE0).
T2 sequence (Q9UBE0 whole entry): T1 sequence (whole entry)
Briefly: (§1) Inhibition of recombinant GST-fused SUMO E1 (unknown origin) using RanGAP1 as substrate after 2 hrs by immunoblot analysis.

The target in test [4] is T1, SUMO-activating enzyme subunit 1 (Homo sapiens). The test is described as §1.

As a reminder, the IC50 is the concentration that gives 50% inhibition.

For the molecule `COc1cc(NC(=O)Nc2nc3c(OC)ccc(C)c3s2)cc(OC)c1OC`, the residual activity in test [1] turned out to be 83.5%; in test [2] it was 99.3%.
The corresponding values for `COc1ccc(NC(=O)Nc2cc(C)nn2C2CCCC2)cc1` are 103% and 93.7%.
The corresponding values for `Cc1ccc(-c2nc(NC(=O)Nc3ccc(Cl)cc3)sc2C)cc1` are 20.6% and 91.8%.
The corresponding values for `COc1ccc(NC(=O)Nc2nc(C)c(C(C)=O)s2)cc1` are 93.3% and 105%.
For `Cc1ccc(-c2nc(NC(=O)Nc3ccc(F)cc3)sc2C)cc1Cl`, the residual activity stood at 94.8% in test [1] and 93.9% in test [2].
As to `Cn1nc(C(C)(C)C)cc1NC(=O)Nc1ccc(OCc2ccccc2)cc1`, the residual activity in test [1] was found to be 97.3%; in test [2], 92.9%.
Regarding `CCc1cc(=O)[nH]c(-n2nc(-c3ccccc3)cc2NC(=O)Nc2ccc(C(C)(C)C)cc2)n1`, the figures for the residual activity in test [1] and in test [2] were 1.88% and 55.2%, respectively. Besides, the half-maximal inhibitory concentration (IC50) in test [3] was determined as 13.8 µM.
As to `COc1ccccc1NC(=O)Nc1cc(C(C)(C)C)nn1-c1ccccc1`, the residual activity was determined as 53.2% in test [1] and 99.6% in test [2].
For the molecule `COc1ccccc1NC(=O)Nc1cc(C(C)(C)C)nn1C`, the residual activity in test [1] was 95.2%; in test [2], 102%.
For `Cn1nc(-c2ccccc2)cc1NC(=O)Nc1ccc(OCc2ccccc2)cc1` the same measures were 3% and 72%.
The corresponding values for `COc1cc(NC(=O)Nc2nc(-c3cc4ccccc4o3)cs2)cc(OC)c1OC` are 45.3% and 76.8%.
The corresponding values for `Cc1sc(NC(=O)Nc2ccc(Cl)cc2)nc1-c1ccccc1` are 95.8% and 91.5%.
`COc1cc(C)ccc1NC(=O)Nc1cn(-c2ccccc2)nc1-c1ccc(OC)c(OC)c1`: the residual activity in test [1] turned out to be 57.5%; in test [2] it was 88.9%.
As for `COc1cc(NC(=O)Nc2nc(-c3nc4ccccc4s3)cs2)cc(OC)c1OC`, the residual activity in test [1] came to 3.96%; in test [2] it was 37.6%. Further, in test [3], the half-inhibitory concentration (IC50) was 33.2 µM. For the same molecule, the inhibition entry in test [4] is “Dose-dependent effect”.
Regarding `CCc1c(C)nc(-n2nc(C)cc2NC(=O)Nc2cccc(OC)c2)[nH]c1=O`, the values for the residual activity in test [1] and in test [2] were 103% and 98.1%, respectively.
As for `COc1cc(NC(=O)Nc2nc3cc(C)c(C)cc3s2)cc(OC)c1OC`, the residual activity was 96% in test [1] and 94.8% in test [2].
For `CCOC(=O)c1sc(NC(=O)Nc2ccc(Cl)c(Cl)c2)nc1C` the same measures were 0.7% and 53.8%.
Consider `CCc1cc(=O)[nH]c(-n2nc(-c3ccccc3)cc2NC(=O)Nc2ccc(OC)cc2)n1`, for which the residual activity in test [1] was found to be 11.8%; in test [2] it was 65.6%.
For `COc1cccc(NC(=O)Nc2cc(C)nn2C2CCCC2)c1` the same measures were 101% and 100%.
Take `COc1ccccc1NC(=O)Nc1nc(-c2ccc(OC)c(OC)c2)cs1`: the residual activity in test [1] is 80%; in test [2], 88.1%.
The corresponding values for `COc1ccc(NC(=O)Nc2nc(-c3ccc(OC)c(OC)c3)cs2)cc1` are 68.7% and 92%.
Consider `COc1cc(NC(=O)Nc2cc(-c3ccccc3)nn2-c2nc(C)cc(=O)[nH]2)cc(OC)c1`, for which the figures for the residual activity in test [1] and in test [2] were 16% and 57.5%, respectively. Moreover, the half-inhibitory concentration (IC50) in test [3] is 73 µM.
With `COc1ccc(NC(=O)Nc2ccc(Oc3ncnc4cc(Cl)ccc34)nc2)cc1OC1CCCC1`, the IC50 in test [3] is 13.4 µM.
Take `COc1cccc(NC(=O)Nc2nc(C)c(C(C)=O)s2)c1`: the residual activity was 91.9% in test [1] and 96.6% in test [2].
With `Cn1nc(-c2ccc(Cl)cc2)cc1NC(=O)Nc1ccc(OCc2ccccc2)cc1`, the residual activity in test [1] came to 1.99%; in test [2], 73.4%.
On to `Cc1ccc(S(=O)(=O)NC(=O)Nc2nc(-c3ccc(C)c(Cl)c3)c(C)s2)cc1`, for which the values for the residual activity in test [1] and in test [2] were 0.68% and 79.3%, respectively.
On to `COc1ccc(NC(=O)Nc2nc(-c3ccc(C)c(Cl)c3)c(C)s2)cc1OC1CCCC1`, for which the residual activity was 13% in test [1] and 39.8% in test [2]. The 50% inhibitory concentration (IC50) in test [3] was found to be 92.6 µM. Also, the inhibition entry in test [4] is “Dose-dependent effect”.
`O=C(Nc1ccc(OCc2ccccc2)cc1)Nc1cc(-c2ccccc2)nn1-c1ccccc1`: the residual activity in test [1] was found to be 13.3%; in test [2] it was 86.3%.
The corresponding values for `CCOc1ccc(NC(=O)Nc2nc(-c3ccccc3)c(C)s2)cc1` are 43.9% and 76.7%.
As for `Cc1ccc(-c2nc(NC(=O)Nc3cccc(Cl)c3)sc2C)cc1`, the residual activity in test [1] worked out at 45.6%; in test [2] it was 88.5%.
For `COc1ccc(NC(=O)Nc2nc3cc(C)c(C)cc3s2)cc1OC`, the residual activity in test [1] amounted to 76.6%; in test [2], 94.6%.
The corresponding values for `Cc1ccc(-c2nc(NC(=O)Nc3ccc(OCc4ccccc4)cc3)sc2C)cc1Cl` are 31.6% and 64.8%.
For `COc1ccc(NC(=O)Nc2cc(C)nn2-c2ccc(F)cc2)cc1` the same measures were 95.4% and 97.7%.
The corresponding values for `COc1cccc(NC(=O)Nc2cc(C)nn2-c2ccc(F)cc2)c1` are 96.4% and 96%.
`COc1cc(NC(=O)Nc2nc(-c3ccc(Cl)s3)cs2)cc(OC)c1OC`: the results for the residual activity in test [1] and in test [2] were 0.01% and 60.8%, respectively.
As for `CCc1cc(=O)[nH]c(-n2nc(-c3ccccc3)cc2NC(=O)Nc2ccc3c(c2)OCO3)n1`, the figures for the residual activity in test [1] and in test [2] were 5.69% and 36.7%, respectively. Moreover, the IC50 in test [3] was over 100 µM.
As to `CCc1cc(=O)[nH]c(-n2nc(-c3ccccc3)cc2NC(=O)Nc2cc(OC)cc(OC)c2)n1`, the residual activity in test [1] came to 26.8%; in test [2], 82.3%.
The corresponding values for `COc1ccc(NC(=O)Nc2nc(-c3ccccc3)c(C(C)=O)s2)cc1OC` are 13.7% and 86%.
Turning to `Cc1cc(=O)[nH]c(-n2nc(-c3ccccc3)cc2NC(=O)Nc2ccc3c(c2)OCO3)n1`, the results for the residual activity in test [1] and in test [2] were 3.99% and 57.7%, respectively. Moreover, the IC50 in test [3] amounted to 30.4 µM.
As for `Cc1ccc(-c2nc(NC(=O)Nc3ccccc3)sc2C)cc1Cl`, the figures for the residual activity in test [1] and in test [2] were 41.4% and 65.6%, respectively.
`COc1ccc(NC(=O)Nc2nc3c(ccc4ccccc43)s2)cc1`: the residual activity is 10.3% in test [1] and 84.7% in test [2].
`O=C(Nc1cccc(Cl)c1)Nc1nc2c(ccc3ccccc32)s1`: the residual activity in test [1] came out at 0.02%; in test [2], 69.3%.

These data come from ChEMBL document CHEMBL3758164, “Identification of new SUMO activating enzyme 1 inhibitors using virtual screening and scaffold hopping” (Bioorg Med Chem Lett, 2016).
